Results: the NIST ThermoML archive (doi:10.1021/acs.jced.5b00251)

Test: refractive index (other wavelength) (dimensionless); xn = mol fraction of the nth substance listed
Conditions: 101 kPa, Liquid, Standard Abbe refractometry

c1ccc2c(c1)CCCC2 [1,2,3,4-tetrahydronaphthalene] + CCCCCCCCCCCC
refractive index
Conditions	x1 = 0.1014	x1 = 0.2024	x1 = 0.3032	x1 = 0.4036	x1 = 0.5038	x1 = 0.6036	x1 = 0.7032	x1 = 0.8024	x1 = 0.9014
293.15 K, Wavelength=436.1 nm	1.44127	1.45203	1.46314	1.47515	1.48812	1.50126	1.51481	1.52971	1.54558
293.15 K, Wavelength=513.9 nm	1.43473	1.44489	1.45538	1.46671	1.47843	1.49106	1.50417	1.51804	1.53275
293.15 K, Wavelength=589.3 nm	1.43105	1.44086	1.45101	1.46197	1.47329	1.48552	1.49803	1.51156	1.52591
293.15 K, Wavelength=633.2 nm	1.42949	1.43917	1.44918	1.45999	1.47113	1.48318	1.49553	1.50887	1.52288
293.15 K, Wavelength=657.2 nm	1.42878	1.43896	1.44835	1.45921	1.47078	1.48194	1.4944	1.50801	1.52229
298.15 K, Wavelength=436.1 nm	1.439	1.44978	1.46073	1.47277	1.48561	1.49875	1.51238	1.52724	1.54301
298.15 K, Wavelength=513.9 nm	1.43249	1.44267	1.4533	1.46438	1.47612	1.48874	1.50164	1.51563	1.53046
298.15 K, Wavelength=589.3 nm	1.42884	1.43868	1.44896	1.45965	1.47078	1.48302	1.4955	1.50927	1.52353
298.15 K, Wavelength=633.2 nm	1.42729	1.43699	1.44692	1.45768	1.4689	1.4807	1.4932	1.50652	1.52049
298.15 K, Wavelength=657.2 nm	1.42675	1.43623	1.44627	1.45678	1.46851	1.47967	1.49181	1.50529	1.5199
303.15 K, Wavelength=436.1 nm	1.43671	1.44738	1.45818	1.4705	1.48295	1.49619	1.50983	1.52452	1.54034
303.15 K, Wavelength=513.9 nm	1.43024	1.44033	1.45084	1.46216	1.47359	1.48633	1.49917	1.51321	1.52785
303.15 K, Wavelength=589.3 nm	1.42659	1.43636	1.44635	1.45733	1.46841	1.48085	1.49318	1.50685	1.52095
303.15 K, Wavelength=633.2 nm	1.42505	1.4347	1.44438	1.45549	1.46668	1.47855	1.49077	1.50415	1.51798
303.15 K, Wavelength=657.2 nm	1.42434	1.434	1.44387	1.45441	1.46615	1.47729	1.48949	1.50284	1.51741
308.15 K, Wavelength=436.1 nm	1.43455	1.44495	1.45589	1.46783	1.4805	1.49371	1.50749	1.52185	1.538
308.15 K, Wavelength=513.9 nm	1.42811	1.43794	1.44864	1.45985	1.47118	1.48392	1.49684	1.51075	1.52559
308.15 K, Wavelength=589.3 nm	1.4245	1.434	1.44408	1.45488	1.46618	1.47848	1.49085	1.50425	1.51872
308.15 K, Wavelength=633.2 nm	1.42297	1.43234	1.44222	1.45318	1.46436	1.4762	1.48855	1.50145	1.51565
308.15 K, Wavelength=657.2 nm	1.42224	1.4316	1.44127	1.45195	1.46385	1.47498	1.48694	1.50013	1.51517
313.15 K, Wavelength=436.1 nm	1.43218	1.44283	1.45339	1.46524	1.47822	1.49111	1.50491	1.51939	1.5354
313.15 K, Wavelength=513.9 nm	1.42576	1.43568	1.44614	1.45759	1.46885	1.48167	1.49443	1.50825	1.52307
313.15 K, Wavelength=589.3 nm	1.42227	1.43177	1.44157	1.45242	1.46372	1.47625	1.48857	1.50166	1.51623
313.15 K, Wavelength=633.2 nm	1.42066	1.43026	1.43979	1.45075	1.46185	1.47398	1.48614	1.49928	1.51325
313.15 K, Wavelength=657.2 nm	1.41998	1.42919	1.439	1.44965	1.46161	1.47245	1.48468	1.49759	1.51275
318.15 K, Wavelength=436.1 nm	1.43001	1.44026	1.45084	1.46269	1.47578	1.48857	1.50241	1.51672	1.5331
318.15 K, Wavelength=513.9 nm	1.42366	1.43333	1.44405	1.45487	1.46645	1.47929	1.49184	1.50571	1.52083
318.15 K, Wavelength=589.3 nm	1.42009	1.42933	1.43955	1.44985	1.46145	1.47389	1.48615	1.49906	1.51403
318.15 K, Wavelength=633.2 nm	1.41859	1.42777	1.43785	1.44826	1.45981	1.47165	1.48389	1.49667	1.51123
318.15 K, Wavelength=657.2 nm	1.41814	1.42702	1.43701	1.44718	1.45934	1.47014	1.48216	1.49507	1.51044
